PMC6984391, “Anion carriers as potential treatments for cystic fibrosis: transport in cystic fibrosis cells, and additivity to channel-targeting drugs” (Chemical Science, 2019)
Read-outs that look alike come from different tables or passages of the source.

Experiments:
YFP-FRT cells = assay: YFP fluorescence plate reader assay of anion transport in YFP-FRT cells; assay type: cell-based, Fischer rat; conditions: for Corrected absolute initial slope |dF/dT|: transporter 50 μM, DMSO 0.5% v/v, DMSO-only subtracted, I^– 100 mM; for anion transport activity in YFP-FRT cells (in words): 50 μM
Method: We treated YFP-FRT cells with anionophores (final concentration, 1–50 μM) or the vehicle DMSO (0.1–0.5% v/v) by direct addition to the phosphate-buffered saline (PBS) bathing the cells. After incubating YFP-FRT cells with anionophores for 10 minutes at 37 °C, we evaluated anion transport activity by adding I^– (100 mM), using a PBS iodide solution with Cl^– replaced by I^–, and following cell fluorescence for 14 s. FRT cells are relatively impermeable to anions because they lack key ion channels found in epithelial cells, including CFTR.[33] Thus, in the absence of anionophore, iodide cannot enter YFP-FRT cells and no quenching of fluorescence occurs. By contrast, in the presence of an anionophore, iodide influx occurs leading to fluorescence quenching.[29]
To quantify anion transport by different anionophores, we fitted first order exponential functions to the iodide-induced fluorescence decay to measure the initial slope, averaging values over multiple experiments. Fig. 2b and Table 1 summarise the data. Consistent with our previous results,[29] we observed a wide range of anion transport activity. […] We therefore selected for further study 11, 12, 15 and 19.
FRT cells stably expressing the halide sensor YFP-H148Q/I152L6 were generous gifts of AS Verkman (University of California, San Francisco), while CFBE41o- cells7 stably expressing YFP (YFP-CFBE cells) were a generous gift of LJV Galietta (Telethon Institute for […]
Genetics and Medicine). […]
U ml-1 penicillin and […] streptomycin. All cells were incubated at 37 °C in a humidified atmosphere with 5% CO2. […]
Fluorescence plate reader assay […]
quenching of YFP fluorescence at 37 °C using a microplate reader following the method of Galietta et al..9 The microplate reader (model: FLUORstar Omega; BMG LABTECH Ltd., Aylesbury, UK) was equipped with a syringe pump and excitation (500 ± 10 nm) and emission (535 ± 15 nm) filters (Chroma Technology GmbH, Olching, Germany). After washing cells twice with PBS (composition (mM): 137 NaCl, 2.7 KCl, 8.1 Na2HPO4, 1.5 KH2PO4, 1 CaCl2 and 0.5 MgCl2, pH 7.40), cells were incubated with test anionophores (1 – 50 µM) or the vehicle (DMSO [0.1 – 0.5% v v-1]) in 40 µl of PBS for 10 – 120 minutes according to the experimental design. Other compounds, including forskolin, ivacaftor and channel inhibitors were added to […]
the PBS bathing cells 10 minutes prior to PBS iodide addition, whereas UTP was added to cells with the PBS iodide solution. Fluorescence was measured for 14 seconds; 2 seconds before and 12 seconds after injection of 110 µl PBS iodide solution (137 mM Cl- replaced by I-) into each well (to obtain a final concentration of I- of 100 mM).
We expressed cell fluorescence values (F) relative to the fluorescence value immediately before I- injection (F0), excluding the initial decrease, which likely represents the quenching of extracellular YFP released from cells and signal reduction accompanying the increase in solution volume bathing cells. To quantify anion transport by test anionophores, we determined the initial slope of the fluorescence decay following I - addition by fitting first order exponential functions to the last 12 seconds of each fluorescence recording. In each experim ent, n values represent the mean of two replicates and all treatments were tested at least three times using different microplates. […]
FRT cells was selected and the cells were perfused with (i) PBS for 5 minutes then (ii) PBS containing I- (10 mM) (made by preparing PBS with 127 mM NaCl to maintain osmolarity) for 5 minutes and finally (iii) PBS for 30 minutes to remove thoroughly I- from the perfusion chamber. YFP-FRT cells were repeatedly treated with I- (10 mM) and then washed with PBS […]
During all interventions, the rate of solution perfusion was 8 – 10 ml min-1; temperature was 37 °C and except for the first

[1] = set-up: method as in PMID 22461434, PMID 21846096, PMID 29786913; conditions: mol% carrier to lipid for 50% Cl^– efflux in 270 s; 490 mM NaCl inside, 490 mM NaNO3 outside; ref [22], [16 and 25]; cited from earlier work
[2] = set-up: method as in ref [16 and 25], [20], [21], [22], [23], [24], [29] (Reference column); conditions: 1H NMR titrations with Bu4N^+Cl^– in DMSO-d6/H2O (200 : 1) at 298 K; ref [16 and 25], [20], [21], [22], [23], [24], [29]; cited from earlier work
[3] = Cl-/NO3- exchange in LUVs with preincorporated anionophore (lucigenin method); assay type: biochemical; conditions: transporter preincorporated in LUVs (70% POPC + 30% cholesterol), 25 mM NaCl gradient, 225 mM NaNO3; new compound or new data
Method: The four new anionophores were tested for affinity to Cl^– (in CHCl3 and DMSO, with tetra-alkylammonium counter-ions), and for anion transport (Cl^–/NO3^– exchange) when preloaded into 200 nm large unilamellar vesicles (LUVs). The latter assay was performed using the well-established “lucigenin method”[30] in which Cl^– influx into vesicles is followed through quenching of fluorescence from the halide-sensitive fluorophore lucigenin. The results are listed in Table 1, accompanied by corresponding values for the previously-reported compounds where available. […] In this test, anion transport by anionophores delivered externally to LUVs is compared with their action when preloaded into LUV membranes.[24],[29],[32]
3. Transport studies in vesicles
Transport measurements in vesicles with preincorporated anionophores.
1-Palmitoyl-2-oleoyl-sn-glycero-3-phosphocholine (POPC) was obtained from Avanti® Polar Lipids, Inc. An extrusion apparatus and 200 nm polycarbonate membranes were obtained from GC Technology Ltd. All lipid and receptor solutions were prepared using chloroform that had been deacidified by passage through a flash chromatography column containing basic alumina, and all aqueous solutions were prepared using deionised water that had been passed through a Millipore filtration system.
POPC and cholesterol solutions (~10 mM) in deacidified chloroform were combined with a solution of transporter in methanol or deacidified chloroform in a 5 mL round bottomed flask.
Volumes of the aliquots were calculated from the concentrations of the lipid solution to obtain a POPC to cholesterol ratio of 7:3 (for instance by combining 4.20 µmol POPC and 1.80 µmol cholesterol). The ratio of anionophore to lipid (POPC + cholesterol) was either 1:2500 or 1:25000, as specified in the experiments. The solvents from the lipid/receptor mixture were evaporated under a stream of N2 and the lipid film was dried under high vacuum for 1 h. The residue was hydrated with 500 µL of an aqueous solution of 10,10'-dimethyl-9,9'-biacridinium nitrate (lucigenin, 0.8 mM) and NaNO3 (225 mM), sonicated for 30 s and stirred for 1 h to give heterogeneous vesicles. Multilamellar vesicles were disrupted by 10 freeze-thaw cycles and then the solution was diluted to 1 mL (by adding 0.5 mL of 225 mM NaNO3) and carefully extruded (29 times) through a polycarbonate membrane (200 nm pore size) to give a uniform distribution of LUVs with an average diameter of ~200 nm.2 The external lucigenin was removed by passing the solution though a size exclusion column (containing ~2 g Sephadex 50G, eluted with 225 mM NaNO3). The collected vesicles were further diluted with NaNO3 solution (225 mM) to obtain a vesicle solution with 0.4 mM lipid concentration. 3.00 mL of this vesicle solution was placed in a quartz cuvette with a small stir bar and the fluorescence intensity (excitation at 450 nm, emission at 535 nm) was measured over time at 25 °C, using a PerkinElmer LS45 fluorescence spectrometer. 75 µL of aqueous NaCl (1.0 M in 225 mM NaNO3, to give an overall external chloride concentration of 25 mM) was added ~30 seconds after the start of the experiment and the fluorescence intensity was measured for another 14 […]
Fluorescence data were collected for at least four replicate experiments. The plateau (before addition of chloride) and the vertical drop (the first 1-2.5 seconds after chloride addition, due to quenching of external lucigenin) were removed. Next the data were normalized: all fluorescence values (F) were divided by the fluorescence value before addition of chloride (F0).
Initial rates (I) were obtained from fluorescence -decay curves (0-500 s) by fitting their inverse (F0/F) to a double exponential decay function:
Differentiating this gives F = abe−bt + cde−dt […]
and substituting t = 0 gives the following equation for initial rate: I = ab + cd Specific initial rates [I] were obtained by dividing the initial rates by the anionophore to lipid […]

[4] = set-up: method as in ref [20], [21], [23], [24], [29] (Reference column); conditions: transporter preincorporated in LUVs (70% POPC + 30% cholesterol), 25 mM NaCl gradient, 225 mM NaNO3; ref [20], [21], [23], [24], [29]; cited from earlier work
[5] = Affinity to Cl- in chloroform by extraction of Et4N+Cl- from water; assay type: binding; conditions: extraction of Et4N^+Cl^– from water into chloroform at 303 K; new compound or new data
Method: Measurement of affinities to Et4N+Cl- in chloroform through extraction from […]
This method is adapted from Clare et al..4 The Et4N+Cl- salt was obtained from Sigma Aldrich and dried under vacuum overnight prior to solution preparation using deionised water that had been passed through a Millipore filtration system. All host solutions were prepared using chloroform that had been deacidified by passage through a flash chromatography column containing basic alumina.
A solution of host in deacidified chloroform was combined with 10 mL of aqueous Et4N+Cl-guest solution in a sample tube (30 mL). Concentrations and volumes are specified in Table
S1. A magnetic stirring bar (2 cm) was added to the tube and the lower half was immersed in a water bath heated to 303 K, while the contents were stirred vigorously to achieve good mixing of the two phases. After 30 minutes, stirring was stopped and the two phases were allowed to separate. The majority of the aqueous phase was then removed using a pipette and the remaining organic phase was centrifuged for 10 minutes at 4000 rpm. The chloroform solution was then filtered through Whatman 1PS hydrophobic filter paper to remove any remaining aqueous phase. Solvent from the filtrate was then removed in vacuo and the solid was further dried under vacuum. The resulting solids from the extraction experiments were dissolved in acetone-d6 and the solutions were analysed with 1H NMR spectroscopy.
A value for the molar ratio (R) was determined by integrating the signal at δ = 3.5 ppm (CH2 of Et4N+Cl-) against one of the receptor signals.
The values for R obtained from the 1H NMR spectra were used to calculate values for the equilibrium extraction constants Ke:
Horg + Xaq− + Yaq+ ⇌HX−Yorg+ Ke = org […]
To convert the extraction constants Ke into association constants Ka it is necessary to obtain the distribution constants Kd for the substrates between aqueous and organic phases:
The Kd value for tetraethylammonium chloride partitioning between water and chloroform has been determined and reported previously to be 1.269 × 10-5 M-1.5
The binding constant Ka is then calculated from Ke and Kd:
H + X−Y+ ⇌ HX−Y+ K = org = e […]
When [G] > 100 mM, the amount of salt that migrates from the aqueous phase into the organic phase without assistance of the host has to be taken into account by correcting the measured […]
Table S1. Overview of the conditions and results from the extraction experiments Receptor [H] (mM) [G] (mM) Vorg (mL) Vaq (mL) Rmeasured Ka (M-1)

Compound	Corrected absolute initial slope |dF/dT| (YFP-FRT cells)	EC50, 270 s [1] [mol%]	K a to Cl^– in DMSO [2]	Specific initial rate [I] [3]	Specific initial rate [I] [4] [s^–1]	K a to Cl^– in CHCl3 [5]	anion transport activity in YFP-FRT cells (in words) (YFP-FRT cells)
O=c1c(Nc2ccccc2)c(Nc2ccccc2)c1=O [Compound 1]	0 ×10^–3 s^–1	1.38	2.6 × 10^2 M^–1	–	–	–	–
O=c1c(Nc2ccc(C(F)(F)F)cc2)c(Nc2ccc(C(F)(F)F)cc2)c1=O [Compound 2]	0.3 ×10^–3 s^–1	0.06	4.6 × 10^2 M^–1	–	–	–	–
O=c1c(Nc2cc(C(F)(F)F)cc(C(F)(F)F)c2)c(Nc2cc(C(F)(F)F)cc(C(F)(F)F)c2)c1=O [Compound 3]	0 ×10^–3 s^–1	0.01	6.4 × 10^2 M^–1	75 ^b s^–1	–	–	–
CCc1c(CNC(=S)Nc2ccc([N+](=O)[O-])cc2)c(CC)c(CNC(=S)Nc2ccc([N+](=O)[O-])cc2)c(CC)c1CNC(=S)Nc1ccc([N+](=O)[O-])cc1 [Compound 4]	0.2 ×10^–3 s^–1	–	3.8 × 10^2 M^–1	–	5	–	–
CCc1c(CNC(=O)Nc2cc(C(F)(F)F)cc(C(F)(F)F)c2)c(CC)c(CNC(=O)Nc2cc(C(F)(F)F)cc(C(F)(F)F)c2)c(CC)c1CNC(=O)Nc1cc(C(F)(F)F)cc(C(F)(F)F)c1 [Compound 7]	0.2 ×10^–3 s^–1	–	3.9 × 10^2 M^–1	–	50	–	–
S=C(NCCN(CCNC(=S)Nc1ccccc1)CCNC(=S)Nc1ccccc1)Nc1ccccc1 [Compound 17]	0.5 ×10^–3 s^–1	0.31	1.8 × 10^3 M^–1	–	–	5.2 × 10^5 ^b M^–1	–
O=C(Nc1ccc([N+](=O)[O-])cc1)Nc1cccc2cc3cccc(NC(=O)Nc4ccc([N+](=O)[O-])cc4)c3cc12 [Compound 20]	8.4 ×10^–3 s^–1	–	2.6 × 10^3 M^–1	–	2100	–	intermediate levels
O=C(Nc1ccc(C(F)(F)F)cc1)Nc1cccc2cc3cccc(NC(=O)Nc4ccc(C(F)(F)F)cc4)c3cc12 [Compound 21]	1.7 ×10^–3 s^–1	–	2.2 × 10^3 M^–1	–	1200	–	–
O=C(Nc1cc(C(F)(F)F)cc(C(F)(F)F)c1)Nc1cccc2cc3cccc(NC(=O)Nc4cc(C(F)(F)F)cc(C(F)(F)F)c4)c3cc12 [Compound 22]	9.0 ×10^–3 s^–1	–	3.0 × 10^3 M^–1	–	1900	–	intermediate levels
